Experimental data reported in publication PMC7979765, “trans-Translation inhibitors bind to a novel site on the ribosome and clear Neisseria gonorrhoeae in vivo” (Nature Communications, 2021).
≈ marks a conversion by molar mass, not a printed value. Where “and” joins values, the source holds several entries; their conditions need not be identical. Equal values may be shown once.

Experiments:
Neisseria gonorrhoeae = experiment: MIC, microbroth dilution, G77L medium; format: cell-based; conditions: Neisseria gonorrhoeae ATCC 49226; source data, individual replicates
HeLa cells [1] = experiment: Mammalian cell cytotoxicity (CC50); format: cell-based, human; conditions: one value per replicate
[2] = Aqueous solubility (nephelometric); format: physicochemical; conditions: for Solubility: single replicates
HeLa cells [3] = experiment: Mammalian cell cytotoxicity (CC50); format: cell-based, human; conditions: HeLa, replicates
Protocol: The half maximal cytotoxic concentration (CC50) of each compound against HeLa cells (ATCC CCL-2) was measured as previously described. […] The mean values for each biological replicate were averaged, and the CC50 was determined using a 4-parameter nonlinear curve fitting algorithm (GraphPad Prism). The average of the CC50s from two biological replicates was calculated and reported.

[4] = Liver microsome stability, murine; format: in vitro ADME, mouse; conditions: murine liver microsomes; for Average MLMS t½: average of replicates; for MLMS t½: individual replicates
How it was run: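 Compounds incubated with liver microsomes plus NADPH over 30 min; parent remaining quantified by reverse-phase LC/MS. Half-life from linear regression over several time points.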

trans-translation = experiment: microbe, parasite or virus in culture; format: cell-based, Escherichia coli; conditions: for IC50: Eco Luc reporter, one value per replicate, read-out: IC50; for Luminescence readout (Envision plate reader) / Luminescence, background subtracted (DMSO control): per replicate
Protocol: To verify that MBX-4132 retains activity as an inhibitor of trans-translation, we measured its dose-dependent activity against the non-stop luciferase reporter assay strain E. coli SB75 ΔtolC::kan (pluc-trpAt) essentially as described, with modifications. Briefly, serial 1.5-fold dilutions of MBX-4132 in DMSO were transferred to 96-well assay plates (Costar 3195), followed by the addition of 50 µl of an overnight culture of SB75 ΔtolC::kan (pluc-trpAt) that had been diluted to a final OD600 of 0.4 with LB media supplemented with 100 µg ampicillin/ml and 1 mM IPTG. […] The assay plates were incubated at room temperature for 2 h, and 50 µl of BrightGlo (Promega) bioluminescence reagent was added to each well. After 10 min incubation, bioluminescence intensity was measured using an Envision multi-label plate reader (Perkin Elmer). Each assay comprised three technical replicates, and the experiment was repeated three times. The fold induction for each MBX-4132 treated sample as compared to the DMSO-only sample was calculated for each technical replicate, and the average and standard deviation of the three technical was calculated. The IC50 was determined using a 4-parameter nonlinear curve fitting algorithm (GraphPad Prism).

Escherichia coli = experiment: microbe, parasite or virus in culture; format: cell-based; conditions: E. coli KLE701 (ΔtolC::tet); source data, individual replicates

SMILES: O=C(Nc1nnc(C2CCCCC2)o1)c1ccc(Cl)cc1 [MBX-4370]
- MIC (Neisseria gonorrhoeae): 0.2388 µg/mL and 0.1196 µg/mL
- CC50 (HeLa cells [1]): 18.1 µM and 19.4 µM and 21.8 µM and 14.3 µM and 14.5 µM and 13.7 µM
- Average solubility [2]: 50 µM
- Solubility [2]: 50 µM (≈ 15.3 µg/mL)
- NORMALIZED DATA (Fraction DMSO Control) (HeLa cells [3]; [CMPD] 0.78125 µM): 1.07 Fraction DMSO Control and 1.036 Fraction DMSO Control and 1.021 Fraction DMSO Control and 1.042 Fraction DMSO Control and 1.024 Fraction DMSO Control and 0.9956 Fraction DMSO Control
- NORMALIZED DATA (Fraction DMSO Control) (HeLa cells [3]; [CMPD] 1.5625 µM): 1.061 Fraction DMSO Control and 1.02 Fraction DMSO Control and 0.9814 Fraction DMSO Control and 1.082 Fraction DMSO Control and 1.03 Fraction DMSO Control and 0.9471 Fraction DMSO Control
- NORMALIZED DATA (Fraction DMSO Control) (HeLa cells [3]; [CMPD] 3.125 µM): 1.05 Fraction DMSO Control and 1.039 Fraction DMSO Control and 0.9574 Fraction DMSO Control and 1.045 Fraction DMSO Control and 1.018 Fraction DMSO Control and 0.9296 Fraction DMSO Control
- NORMALIZED DATA (Fraction DMSO Control) (HeLa cells [3]; [CMPD] 6.25 µM): 1.047 Fraction DMSO Control and 1.02 Fraction DMSO Control and 0.985 Fraction DMSO Control and 1.025 Fraction DMSO Control and 0.9985 Fraction DMSO Control and 0.9262 Fraction DMSO Control
- NORMALIZED DATA (Fraction DMSO Control) (HeLa cells [3]; [CMPD] 12.5 µM): 0.7981 Fraction DMSO Control and 0.8325 Fraction DMSO Control and 0.8129 Fraction DMSO Control and 0.8056 Fraction DMSO Control and 0.7525 Fraction DMSO Control and 0.7321 Fraction DMSO Control
- NORMALIZED DATA (Fraction DMSO Control) (HeLa cells [3]; [CMPD] 25 µM): 0.4723 Fraction DMSO Control and 0.5367 Fraction DMSO Control and 0.6164 Fraction DMSO Control and 0.4594 Fraction DMSO Control and 0.5425 Fraction DMSO Control and 0.5809 Fraction DMSO Control
- NORMALIZED DATA (Fraction DMSO Control) (HeLa cells [3]; [CMPD] 50 µM): 0.2465 Fraction DMSO Control and 0.3246 Fraction DMSO Control and 0.4191 Fraction DMSO Control and 0.3946 Fraction DMSO Control and 0.4088 Fraction DMSO Control and 0.4903 Fraction DMSO Control
- NORMALIZED DATA (Fraction DMSO Control) (HeLa cells [3]; [CMPD] 100 µM): 0.4495 Fraction DMSO Control and 0.5491 Fraction DMSO Control and 0.5315 Fraction DMSO Control and 0.5237 Fraction DMSO Control and 0.6389 Fraction DMSO Control and 0.5972 Fraction DMSO Control
- Average MLMS t½ [4]: <5 min
- MLMS t½ [4]: <5 min
- IC50 (trans-translation): 0.12 µM and 0.122 µM and 0.145 µM
- Luminescence readout (Envision plate reader) (trans-translation; [Compound] 0.046875 µM): 496280 and 436160 and 442680
- Luminescence readout (Envision plate reader) (trans-translation; [Compound] 0.0625 µM): 452080 and 467160 and 463360
- Luminescence, background subtracted (DMSO control) (trans-translation; [Compound] 0.0625 µM): 23120 and 8920 and 25040
- Luminescence readout (Envision plate reader) (trans-translation; [Compound] 0.09375 µM): 467480 and 440040 and 454600
- Luminescence readout (Envision plate reader) (trans-translation; [Compound] 0.125 µM): 460600 and 443360 and 458920
- Luminescence readout (Envision plate reader) (trans-translation; [Compound] 0.1875 µM): 449320 and 468280 and 463760
- Luminescence, background subtracted (DMSO control) (trans-translation; [Compound] 0.1875 µM): 20360 and 10040 and 25440
- Luminescence readout (Envision plate reader) (trans-translation; [Compound] 0.25 µM): 454000 and 469520 and 468760
- Luminescence, background subtracted (DMSO control) (trans-translation; [Compound] 0.25 µM): 25040 and 11280 and 30440
- Luminescence readout (Envision plate reader) (trans-translation; [Compound] 0.375 µM): 472720 and 482560 and 460640
- Luminescence, background subtracted (DMSO control) (trans-translation; [Compound] 0.375 µM): 43760 and 24320 and 22320
- Luminescence readout (Envision plate reader) (trans-translation; [Compound] 0.5 µM): 517120 and 524880 and 509520
- Luminescence, background subtracted (DMSO control) (trans-translation; [Compound] 0.5 µM): 88160 and 66640 and 71200
- Luminescence readout (Envision plate reader) (trans-translation; [Compound] 0.75 µM): 547920 and 542080 and 527800
- Luminescence, background subtracted (DMSO control) (trans-translation; [Compound] 0.75 µM): 118960 and 83840 and 89480
- Luminescence readout (Envision plate reader) (trans-translation; [Compound] 1 µM): 530760 and 535720 and 544960
- Luminescence, background subtracted (DMSO control) (trans-translation; [Compound] 1 µM): 101800 and 77480 and 106640
- Luminescence readout (Envision plate reader) (trans-translation; [Compound] 1.5 µM): 476080 and 424480 and 540520
- MIC (Escherichia coli): 0.4778 µg/mL and 0.9555 µg/mL

SMILES: Cc1ccc(S(=O)(=O)Nc2nnc(-c3ccc(F)cc3)o2)cc1 [MBX-4063]
- MIC (Neisseria gonorrhoeae): >=33.3 µg/ml
- CC50 (HeLa cells [1]): ≥ 100 µM
- Average solubility [2]: 100 µM
- Solubility [2]: 100 µM (≈ 33.3 µg/mL)
- NORMALIZED DATA (Fraction DMSO Control) (HeLa cells [3]; [CMPD] 0.78125 µM): 1.183 Fraction DMSO Control and 0.9487 Fraction DMSO Control and 1.005 Fraction DMSO Control
- NORMALIZED DATA (Fraction DMSO Control) (HeLa cells [3]; [CMPD] 1.5625 µM): 1.094 Fraction DMSO Control and 0.958 Fraction DMSO Control and 0.97 Fraction DMSO Control
- NORMALIZED DATA (Fraction DMSO Control) (HeLa cells [3]; [CMPD] 3.125 µM): 1.091 Fraction DMSO Control and 0.9572 Fraction DMSO Control and 1.016 Fraction DMSO Control
- NORMALIZED DATA (Fraction DMSO Control) (HeLa cells [3]; [CMPD] 6.25 µM): 1.076 Fraction DMSO Control and 0.9091 Fraction DMSO Control and 0.9832 Fraction DMSO Control
- NORMALIZED DATA (Fraction DMSO Control) (HeLa cells [3]; [CMPD] 12.5 µM): 1.0577 Fraction DMSO Control and 0.9473 Fraction DMSO Control and 0.9636 Fraction DMSO Control
- NORMALIZED DATA (Fraction DMSO Control) (HeLa cells [3]; [CMPD] 25 µM): 1.026 Fraction DMSO Control and 0.9338 Fraction DMSO Control and 0.9374 Fraction DMSO Control
- NORMALIZED DATA (Fraction DMSO Control) (HeLa cells [3]; [CMPD] 50 µM): 1.123 Fraction DMSO Control and 0.9526 Fraction DMSO Control and 0.9567 Fraction DMSO Control
- NORMALIZED DATA (Fraction DMSO Control) (HeLa cells [3]; [CMPD] 100 µM): 1.06 Fraction DMSO Control and 0.9108 Fraction DMSO Control and 0.964 Fraction DMSO Control
- Average MLMS t½ [4]: <5 min
- MLMS t½ [4]: <5 min
- IC50 (trans-translation): ≥ 25 µM
- MIC (Escherichia coli): >=33.334 µg/ml
